Source: paper PMC12737022, “Evaluations of Sex Differences in Dosimetry in Rats Following Perfluorohexanesulfonamide (PFHxSA) Oral Exposure” (Toxics, 2025)
Where “and” joins values, the source holds several entries; their conditions need not be identical. Identical values can stand only once.

Tests used:
[1] = Plasma dosimetry of PFHxSA and PFHxS by targeted LC/MS/MS; assay type: in vivo, rat; conditions: for concentration at 24 h: male, Sprague Dawley (Crl:CD(SD)), rat, oral, mean ± SD, read-out: PFHxS Male Plasma Conc.
From the text: (§1) The plasma and liver samples for this investigation were provided by Mutlu et al.. The study design, including detailed descriptions of animal handling, procedures for dosing, clinical observations, termination, and collection of tissues, is reported elsewhere and is consistent with the ARRIVE guidelines. Briefly, male and female Sprague Dawley (SD) rats (Crl:CD(SD)) (n = 48/sex, 96 total) were purchased from Charles River Laboratory (Raleigh, NC, USA) and allowed to acclimate for ≥5 days before initial dosing. Rats were 8–10 weeks old at the time of exposure. PFHxSA dosing solutions in corn oil were prepared on Day 0 and used over the course of the study. Rats of both sexes (n = 5/sex, dose, and time point, plus eight vehicle controls per sex) were dosed by oral gavage (5 mL/kg body weight) once daily for five days. […] The formulation concentrations decreased from 100 mg/kg/day at half-log10 intervals until the lowest dose level, which was a full log10 interval below the next higher dose, giving eight dose levels (0.01 to 100 mg/kg/day or 0.025 µmol/kg/day to 250 µmol/kg/day) in addition to vehicle controls. Doses were administered in randomized order within ± 1 h on each day of dosing. […] Rats were euthanized 24 h after the last dose. Blood was collected via cardiac puncture with tripotassium ethylene diamine tetraacetic acid (K3EDTA) as an anti-coagulant and centrifuged to collect cell-free plasma. Liver was collected and flash-frozen in liquid nitrogen. Liver, plasma, and dosing formulation samples were frozen at the USEPA Center for Computational Toxicology and Exposure (CCTE), Durham, NC, USA. Tissue samples (plasma and liver, n = 96 each) were stored at ≤−70 °C prior to extraction; dosing formulation samples (n = 9) were stored at −20 °C.
(§2) Detailed information on solvents and standards used for targeted LC/MS/MS of PFHxSA and PFHxS can be found in SI Text S1 and SI Table S1. Plasma and liver preparations were modified from Conley et al.. Briefly, aliquots of plasma (25 µL) and liver (~10 mg) were spiked with PFOSA as an internal standard, as no isotope-labeled PFHxSA was available. Sample batches included up to 96 samples along with an MB, CCV, and LCS for QC. Commercial plasma (mixed-sex SD rat plasma) and liver (mixed-sex SD rat) were obtained from BioIVT (Westbury, NY, USA). Cold acetonitrile (ACN) with 0.1 M formic acid was used to precipitate proteins. Liver and plasma samples were prepared similarly, except that the livers were homogenized after solvent addition. Plasma samples were vortexed to mix before being chilled at −20 °C, after which samples were centrifuged at 5 °C and 10,000× g. Liver samples were chilled at −80 °C, then homogenized using an Omni International (Kennesaw, GA, USA) Bead Ruptor 24. Liver homogenates were centrifuged at 26,000× g and 5 °C. Supernatants from the extraction of both matrices were removed and stored at −20 °C until analysis. Refer to SI Text S4 for additional experimental details and information on calibration and QC parameters for quantitation of PFHxSA.
(§3) Targeted LC/MS/MS of PFHxSA was performed on a Sciex 4000 QTRAP LC/MS/MS system operated in negative ESI mode with MRM scanning. A Restek (Bellefonte, PA, USA) Raptor Polar X (100 mm × 2 mm, 2.7 µm) column was used for liquid chromatography. Isocratic elution occurred over 10 min with a 30:70 ratio of mobile phase A (10 mM ammonium formate): mobile phase B (60:40 ACN: methanol). Both mobile phases included 0.05% formic acid. The LOQs for PFHxSA were 0.100 µM in plasma and 0.351 µM in liver. Additional details of the instrument method parameters for targeted analysis of PFHxSA are provided in SI Table S5. The MRM transitions for the PFHxSA method are provided in SI Table S6. […]

[2] = Liver dosimetry of PFHxSA and PFHxS by targeted LC/MS/MS; assay type: in vivo, rat; conditions: for PFHxS Male Liver Conc. (wet weight) / PFHxS Female Liver Conc. (wet weight) / concentration at 24 h: individual rats; for PFHxS Male Liver Conc. (wet weight) / concentration at 24 h: male; for concentration at 24 h: Sprague Dawley (Crl:CD(SD)), liver, oral, read-out: PFHxS Male Liver Conc. (wet weight)
From the text: as §1, §2, §3

[3] = parameters: method as in Smeltz et al. [60]; conditions: ref Smeltz et al. [60], cited from earlier work
[4] = PFHxSA 10 mg/kg/day oral 5 days
[5] = PFHxSA 30 mg/kg/day oral 5 days
[6] = PFHxSA 100 mg/kg/day oral 5 days

O=S(=O)(O)C(F)(F)C(F)(F)C(F)(F)C(F)(F)C(F)(F)C(F)(F)F [PFHxS, perfluorohexane sulfonic acid]
Male PFHxS plasma concentrations higher than female at the same dose level ([1]; across the dose range): 4–10 times
Female level of PFHxS lower than males, on average ([1]; doses of 10 mg/kg/day and up, plasma): 5.3 fold
PFHxS lower than PFHxSA in female plasma, on average ([1]; female rats, after oral PFHxSA): 5.3 fold
PFHxS plasma concentrations higher than coincident PFHxSA plasma levels ([1]; male rats, PFHxSA 30 and 100 mg/kg/day): 1.6- to 6 fold
concentration at 24 h ([1]; plasma, PFHxSA 10 mg/kg/day oral 5 days, male rats): 76.9 µM
concentration at 24 h ([1]; plasma, PFHxSA 30 mg/kg/day oral 5 days, male rats): 136 µM
concentration at 24 h ([1]; plasma, PFHxSA 100 mg/kg/day oral 5 days, male rats): 396 µM
Male PFHxS/PFHxSA concentration ratios higher than female ratios ([1]; plasma and liver): approximately 10 fold
PFHxS Male Liver Conc. (wet weight) ([2]; PFHxSA 0.3 mg/kg/day oral 5 days): 2.31 ng/mg and 3.68 µM and 0.95 µM and 2.30 µM and 0.85 µM and 1.47 ng/mg and 0.381 ng/mg and 0.921 ng/mg and 0.340 ng/mg
PFHxS Male Liver Conc. (wet weight) ([2]; PFHxSA 1 mg/kg/day oral 5 days): 2.73 ng/mg (2×) and 2.38 ng/mg and 3.34 µM and 5.56 µM and 6.81 µM (2×) and 5.95 µM and 1.34 ng/mg and 2.23 ng/mg
PFHxS Male Liver Conc. (wet weight) ([2]; PFHxSA 3 mg/kg/day oral 5 days): 4.61 ng/mg and 5.83 ng/mg and 4.92 ng/mg and 3.19 ng/mg and 11.5 µM and 14.6 µM and 12.3 µM and 7.97 µM
PFHxS Female Liver Conc. (wet weight) [2, 4]: 0.301 ng/mg and 0.776 ng/mg and 0.700 ng/mg and 1.18 ng/mg and 1.13 ng/mg and 0.753 µM and 1.94 µM and 1.75 µM and 2.96 µM and 2.81 µM
PFHxS Male Liver Conc. (wet weight) [2, 4]: 8.96 ng/mg and 6.84 ng/mg and 9.88 ng/mg and 7.36 ng/mg and 22.4 µM and 17.1 µM and 24.7 µM and 18.4 µM
PFHxS Female Liver Conc. (wet weight) [2, 5]: 1.72 ng/mg and 2.56 ng/mg and 1.26 ng/mg and 1.35 ng/mg and 2.38 ng/mg and 4.31 µM and 6.39 µM and 3.15 µM and 3.37 µM and 5.96 µM
PFHxS Male Liver Conc. (wet weight) [2, 5]: 16.3 ng/mg and 15.3 ng/mg and 15.2 ng/mg and 24.0 ng/mg and 40.7 µM and 38.2 µM and 38.3 µM and 60.1 µM
PFHxS Female Liver Conc. (wet weight) [2, 6]: 4.16 µM and 2.21 µM and 10.2 µM and 5.79 µM and 2.07 µM and 1.66 ng/mg and 0.885 ng/mg and 4.07 ng/mg and 2.32 ng/mg and 0.826 ng/mg
PFHxS Male Liver Conc. (wet weight) [2, 6]: 67.1 ng/mg and 88.3 ng/mg and 41.9 ng/mg and 34.0 ng/mg and 44.5 ng/mg and 168 µM and 221 µM and 105 µM and 85.1 µM
PFHxS lower than PFHxSA in female liver, on average ([2]; female rats, after oral PFHxSA): 2.9 fold
concentration at 24 h ([2]; rat, PFHxSA 3 mg/kg/day oral 5 days): 3100 ng/g and 7.74 µM
concentration at 24 h ([2]; rat, PFHxSA 10 mg/kg/day oral 5 days): 7940 ng/g and 19.9 µM
concentration at 24 h ([2]; rat, PFHxSA 30 mg/kg/day oral 5 days): 14500 ng/g and 36.2 µM
Male PFHxS liver concentrations versus females at equivalent dose levels ([2]; rat, in vivo): approximately ten-fold greater
fup (fraction unbound in plasma) ([3]; Human plasma): 0.0009 ^1
fub (fraction unbound in blood) ([3]; Human): 0.0016 ^1
